The results in this text go back to patent US5177085A, “Dihydro-isoquinoline derivatives, processes for their production, pharmaceutical compositions containing them, and their use in treating asthma” (Sandoz Ltd., priority 1990, dated 1993).

Assay [1] concerns guinea-pig tracheal ring preparations. The assay is described as follows: Relaxation of guinea-pig tracheal smooth muscle in vitro (Example A.1.a). In kind it is cell-based, Guinea-pig (Dunkin-Hartley). The conditions noted are these: Cavia porcellus; guinea-pig tracheal rings, spontaneous tone, 37° C., cumulative; pure or substantially pure [3S] enantiomer for Example 1; read-out: IC50 (concentration required to increase relaxation by 50%). As to the method: (§1) Guinea-pigs (Dunkin-Hartley, 350-500gm) are killed with Pentothal (100mg/kg i.p.). The trachea is dissected and a section 2-3cm in length excised. The trachea is transected in the transverse plane at alternate cartilage plates so as to give rings of tissue 3-5mm in depth. The proximal and distal rings are discarded. Individual rings are mounted vertically on stainless steel supports, one of which is fixed at the base of an organ bathm the other being attached to an isometric transducer. The rings are bathed in Krebs solution composition mM: NaHCo3 25, NaCl 113, KCl 4.7, MgSO4.7H2 O 1.2, KH2 PO4 1.2, CaCl2 2.5, Glucose 11.7) at 37° C. and gassed with O2 /CO2 (95:5,v/v). Rings prepared in this manner, preloaded with 1 g, generate spontaneous tone and, after a period of equilibration (45-60 min.), relax consistently on addition of spasmolytic drugs. To ascertain spasmolytic activity, test substances are dissolved in physiological saline and added in increasign quantities to the organ bath at 5 min. intervals to provide a cumulative concentration-effect curve.

The subject of assay [2] is human bronchus ring preparations. The assay is described as follows: Relaxation of human bronchus in vitro (Example A.1.b). In kind it is cell-based. The conditions noted are these: human bronchus rings; pure or substantially pure [3S] enantiomer for Example 1. As to the method: as §1
The test is performed analogously to 1. a above but employing rings of human bronchus dissected from lung that has been resected for carcinoma. Dissected material is used immediately or first immersed in total calf serum containing DMSO ([…]), slowly frozen to -70° C. and stored in liquid N2 at -190° C. […]

The test system of assay [3] is PAF-induced airways hyperreactivity in guinea-pigs. The assay is described as follows: Suppression of airways hyperreactivity in PAF-treated animals (Example B). In kind it is in vivo. The conditions noted are these: Cavia porcellus, iv; headed Example B (PAF-treated guinea-pigs); i.v.; pure or substantially pure [3S] enantiomer for Example 1; read-out: ID50 (dose required to increase relaxation by 50%). As to the method: Guinea pigs (Dunkin-Hartley, male, 400-600g) are anesthetized with phenobarbital (100-mg/kg i.p.) and pentobarbital (30 mg/kg i.p.) and paralyzed with gallamine (10 mg/kg i.m.). Animals are ventilated via a tracheal cannula (10 ml/kg, 1 Hz) with a mixture of air and oxygen (1:1 v/v). Blood pressure and heart rate are recorded at the carotid artery. Ventilation is monitored by a Fleisch flow transducer in line with the inspiratory circuit. When making measurements of flow, coincident pressure changes in the thorax are monitored directly via an intrathoracic trochar, permitting display of differential pressure relative to the trachea. From this information in relation to flow and differential pressure, resistance [R1 ] and compliance [Ddyn ] are calculated using a digital respiratory analyzer for each respiratory cycle.
Guinea-pigs are anesthetized and prepared for recording of lung function as described under Example A.2. above. […] Following infusion of PAF (platelet activating factor) over 1 hr.

Structures are written as SMILES.

Consider `Cn1c(=O)c2[nH]cnc2n(C)c1=O` [aminophylline], for which the IC50 was found to be 130 µM in assay [1] and 158 µM in assay [2].
As for `Cn1c(=O)c2[nH]cnc2n(C)c1=O` [theophyline], the ED50 in assay [3] was determined as 3 mg/kg.
Regarding `COc1cc(OC)cc(C2=N[C@H](CO)Cc3cc(OC)c(OC)cc32)c1` [Example 1, [3S] 3,4-dihydro-6,7-dimethoxy-1-(3,5-dimethoxyphenyl)-3-hydroxymethyl-isoquinoline], the IC50 in assay [1] stood at 0.18 µM; in assay [2], 1.9 µM. The ED50 in assay [3] was around 0.05 mg/kg.
